We go through 19 compounds from PubChem BioAssay AID248 (DTP/NCI, 2004).

This test has as its system L1210 leukemia ip in BDF1 mice, survival T/C. Description: NCI In Vivo Anticancer Drug Screen. Data for tumor model L1210 Leukemia (intraperitoneal) in B6D2F1 (BDF1) mice. Particulars: endpoint: mean survival time, higher = longer survival. The gist of the method:
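Antitumor effect is assessed in tumor-bearing animals. Survival in the compound arm is compared with a vehicle-dosed control arm and expressed as their quotient.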

Where [1] appears, read: dose: 100.0 mg/kg/injection, schedule: Q01DX009 (ip), vehicle: Klucel (hydroxypropylcellulose) (HPC).
Where [2] appears, read: dose: 100.0 mg/kg/injection, schedule: Q04DX003 (ip), vehicle: Klucel (hydroxypropylcellulose) (HPC).
Setting [3] is: dose: 200.0 mg/kg/injection, schedule: Q01DX009 (ip), vehicle: Klucel (hydroxypropylcellulose) (HPC).
Setting [4] is: dose: 200.0 mg/kg/injection, schedule: Q04DX003 (ip), vehicle: Klucel (hydroxypropylcellulose) (HPC).
Setting [5] is: dose: 400.0 mg/kg/injection, schedule: Q01DX009 (ip), vehicle: Klucel (hydroxypropylcellulose) (HPC).
[6] abbreviates: dose: 400.0 mg/kg/injection, schedule: Q04DX003 (ip), vehicle: Klucel (hydroxypropylcellulose) (HPC).
The mark [7] stands for this setting: dose: 100.0 mg/kg/injection, schedule: Q01DX001 (ip), vehicle: carboxymethylcellulose (CMC).
Where [8] appears, read: dose: 200.0 mg/kg/injection, schedule: Q01DX001 (ip), vehicle: carboxymethylcellulose (CMC).
Where [9] appears, read: dose: 400.0 mg/kg/injection, schedule: Q01DX001 (ip), vehicle: carboxymethylcellulose (CMC).
[10] abbreviates: dose: 50.0 mg/kg/injection, schedule: Q01DX009 (ip), vehicle: Klucel (hydroxypropylcellulose) (HPC).

Each structure is given as a SMILES string. Values joined by “and” are separate entries in the source; they are usually repeats but may differ in a detail not shown here. Equal entries are not always repeated. Inconclusive results and toxic doses are left out.

Turning to `CCCCCCCCCCCCNC(=O)Nc1ccc(CC)cc1`, the T/C under setting [1] was 87 % of control; the T/C under setting [2] was 97 % of control; the T/C under setting [3] was 94 % of control; the T/C under setting [4] was 96 % of control; the T/C under setting [5] was 93 % of control; the T/C under setting [6] is 101 % of control.

With `CC(c1c[nH]c2ccccc12)C(N)C(=O)O` (configuration not stated), the T/C is 95 % of control and 93 % of control (dose: 100.0 mg/kg/injection, schedule: Q04DX003 (ip), vehicle: saline); 98 % of control and 92 % of control (dose: 200.0 mg/kg/injection, schedule: Q04DX003 (ip), vehicle: saline); 95 % of control and 97 % of control (dose: 400.0 mg/kg/injection, schedule: Q04DX003 (ip), vehicle: saline).

In the case of `O=C(Nc1ccc(Cl)c(Cl)c1)c1ccc2c(c1)C(=O)OC2=O`, the T/C (dose: 100.0 mg/kg/injection, schedule: Q01DX009 (ip), vehicle: saline with Tween-80) was 106 % of control; the T/C (dose: 200.0 mg/kg/injection, schedule: Q01DX009 (ip), vehicle: saline with Tween-80) was 106 % of control; the T/C (dose: 400.0 mg/kg/injection, schedule: Q01DX009 (ip), vehicle: saline with Tween-80) is 106 % of control.

With `CNC(=O)Nc1ccc(C)cc1`, the T/C was 108 % of control under setting [7], 111 % of control under setting [8] and 111 % of control under setting [9].

For the compound `NC(=NCc1ccccc1)c1ccc(NC(=O)c2ccc(C(=O)Nc3ccc(C(N)=NCc4ccccc4)cc3)cc2)cc1`, the T/C (dose: 7.0 mg/kg/injection, schedule: Q01DX Z (ip), vehicle: water) was 113 % of control.

Take `CC1(C)C(N2CCCCC2)CS1(=O)=O` (configuration not stated): the T/C is, setting by setting: (dose: 12.5 mg/kg/injection, schedule: Q01DX009 (ip), vehicle: saline sonified) 103 % of control; (dose: 25.0 mg/kg/injection, schedule: Q01DX009 (ip), vehicle: saline sonified) 98 % of control; (dose: 50.0 mg/kg/injection, schedule: Q01DX009 (ip), vehicle: saline sonified) 94 % of control.

As for `c1ccc(-c2cnoc2-c2ccccc2)cc1`, the T/C by setting is: under setting [1], 107 % of control; under setting [2], 111 % of control; under setting [3], 106 % of control; under setting [4], 95 % of control; under setting [5], 102 % of control; under setting [6], 101 % of control.

Consider `CC(C)[O][In]([O]C(C)C)[O]C(C)C`, for which the T/C was 96 % of control (dose: 50.0 mg/kg/injection, schedule: Q04DX003 (ip), vehicle: saline with Tween-80); 99 % of control (dose: 100.0 mg/kg/injection, schedule: Q04DX003 (ip), vehicle: saline with Tween-80); 91 % of control (dose: 200.0 mg/kg/injection, schedule: Q04DX003 (ip), vehicle: saline with Tween-80); 96 % of control (dose: 400.0 mg/kg/injection, schedule: Q04DX003 (ip), vehicle: saline with Tween-80).

In the case of `Cn1c(CC(O)(C(F)(F)F)C(F)(F)F)c(C(O)(C(F)(F)F)C(F)(F)F)c2ccccc21`, the T/C (dose: 5.0 mg/kg/injection, schedule: Q01DX009 (ip), vehicle: saline with Tween-80) is 100 % of control and the T/C (dose: 10.0 mg/kg/injection, schedule: Q01DX009 (ip), vehicle: saline with Tween-80) was 94 % of control.

Turning to `Nc1nc(N)c2c(n1)[n+]([O-])c1ccccc1[n+]2[O-]`, the T/C by setting is: (dose: 100.0 mg/kg/injection, schedule: Q01DX001 (ip), vehicle: saline) 103 % of control; (dose: 200.0 mg/kg/injection, schedule: Q01DX001 (ip), vehicle: saline) 103 % of control; (dose: 400.0 mg/kg/injection, schedule: Q01DX001 (ip), vehicle: saline) 94 % of control.

As for `O=S(=O)(F)c1cc(C[P+](c2ccccc2)(c2ccccc2)c2ccccc2)ccc1Cl`, the T/C is, setting by setting: (dose: 6.25 mg/kg/injection, schedule: Q01DX009 (ip), vehicle: saline with Tween-80) 105 % of control; (dose: 12.5 mg/kg/injection, schedule: Q01DX009 (ip), vehicle: saline with Tween-80) 102 % of control; (dose: 25.0 mg/kg/injection, schedule: Q01DX009 (ip), vehicle: saline with Tween-80) 103 % of control.

In the case of `CCCCSc1cc(C)nc(SCCCC)n1`, the T/C runs as follows: under setting [10], 101 % of control; under setting [1], 101 % of control; under setting [3], 101 % of control.

On to `Cc1ccc(S(=O)(=O)OCC2CO2)cc1` (configuration not stated), for which the T/C is 92 % of control (dose: 100.0 mg/kg/injection, schedule: Q01DX009 (ip), vehicle: acetone); 92 % of control (dose: 100.0 mg/kg/injection, schedule: Q04DX003 (ip), vehicle: acetone); 95 % of control (dose: 200.0 mg/kg/injection, schedule: Q04DX003 (ip), vehicle: acetone); 87 % of control (dose: 400.0 mg/kg/injection, schedule: Q01DX009 (ip), vehicle: acetone); 92 % of control (dose: 400.0 mg/kg/injection, schedule: Q04DX003 (ip), vehicle: acetone).

Regarding `CC(C)=CCC(N)C(C)c1ccccc1` (configuration not stated), the T/C was 96 % of control (dose: 12.5 mg/kg/injection, schedule: Q01DX009 (ip), vehicle: Klucel (hydroxypropylcellulose) (HPC)); 98 % of control (dose: 25.0 mg/kg/injection, schedule: Q01DX009 (ip), vehicle: Klucel (hydroxypropylcellulose) (HPC)); 94 % of control (dose: 25.0 mg/kg/injection, schedule: Q04DX002 (ip), vehicle: Klucel (hydroxypropylcellulose) (HPC)); 104 % of control under setting [10]; 105 % of control (dose: 50.0 mg/kg/injection, schedule: Q04DX002 (ip), vehicle: Klucel (hydroxypropylcellulose) (HPC)); 102 % of control (dose: 100.0 mg/kg/injection, schedule: Q04DX002 (ip), vehicle: Klucel (hydroxypropylcellulose) (HPC)).

In the case of `CC(C)(C)c1cc(C(C)(C)C)nc(C(C)(C)C)c1`, the T/C by setting is: (dose: 100.0 mg/kg/injection, schedule: Q01DX001 (ip), vehicle: Klucel (hydroxypropylcellulose) (HPC)) 98 % of control; (dose: 200.0 mg/kg/injection, schedule: Q01DX001 (ip), vehicle: Klucel (hydroxypropylcellulose) (HPC)) 98 % of control.

Take `O=C(NCCCOc1ccccc1)NCCc1ccc(Cl)c(Cl)c1`: the T/C was 99 % of control (dose: 100.0 mg/kg/injection, schedule: Q01DX001 (ip), vehicle: gum acacia); 94 % of control (dose: 200.0 mg/kg/injection, schedule: Q01DX001 (ip), vehicle: gum acacia); 91 % of control (dose: 400.0 mg/kg/injection, schedule: Q01DX001 (ip), vehicle: gum acacia).

As for `CNC(=O)c1ccc(NC(=O)Nc2ccc(C3=NCCN3)cc2)cc1NC(=O)Nc1ccc(C2=NCCN2)cc1`, the T/C is 96 % of control (dose: 2.0 mg/kg/injection, schedule: Q01DX Z (ip), vehicle: carboxymethylcellulose (CMC)); 112 % of control (dose: 4.0 mg/kg/injection, schedule: Q01DX Z (ip), vehicle: carboxymethylcellulose (CMC)); 209 % of control and 351 % of control (dose: 17.0 mg/kg/injection, schedule: Q01DX Z (ip), vehicle: carboxymethylcellulose (CMC)); 287 % of control (dose: 27.0 mg/kg/injection, schedule: Q01DX Z (ip), vehicle: carboxymethylcellulose (CMC)); 239 % of control and 295 % of control (dose: 34.0 mg/kg/injection, schedule: Q01DX Z (ip), vehicle: carboxymethylcellulose (CMC)); 209 % of control (dose: 51.0 mg/kg/injection, schedule: Q01DX Z (ip), vehicle: carboxymethylcellulose (CMC)). In addition, the T/C reads like this: (dose: 62.0 mg/kg/injection, schedule: Q01DX Z (oral), vehicle: carboxymethylcellulose (CMC)) 104 % of control; (dose: 68.0 mg/kg/injection, schedule: Q01DX Z (ip), vehicle: carboxymethylcellulose (CMC)) 152 % of control; (dose: 125.0 mg/kg/injection, schedule: Q01DX Z (oral), vehicle: carboxymethylcellulose (CMC)) 105 % of control; (dose: 250.0 mg/kg/injection, schedule: Q01DX Z (oral), vehicle: carboxymethylcellulose (CMC)) 102 % of control; (dose: 500.0 mg/kg/injection, schedule: Q01DX Z (oral), vehicle: carboxymethylcellulose (CMC)) 102 % of control.

For the compound `O=C(COc1ccc([N+](=O)[O-])cc1)OCCN1CCOCC1`, the T/C is 92 % of control under setting [7], 111 % of control under setting [8] and 101 % of control under setting [9].

With `CC1c2ncnc(N)c2CN1C(=O)c1ccccc1` (configuration not stated), the T/C is, setting by setting: under setting [7], 98 % of control; under setting [8], 98 % of control.
